Results published in patent publication US20230013669A1, “Antibacterial Treatment Using a Cannabinoid and an Active Agent” (priority 2019, published 2023).
“And” between values parts separate entries of the source, which are not always exact repeats. Equal values may be shown once. Read-outs that look alike come from different tables or passages of the source.

System: Escherichia coli ATCC 25922 (GN_001)
Test: Synergy of cannabidiol with cell-wall disrupting agent (CBD MIC in combination, FICI)
Format: cell-based
Settings: for FICI: calculated using MIC of 256 μg/mL for cannabidiol; for MIC: Escherichia coli
Method: The compounds were stored short term at 4° C.
Analysis was performed using Microsoft Excel.

C=C(C)C1CCC(C)=CC1c1c(O)cc(CCCCC)cc1O (stereo not shown) [Cannabidiol, 2-[3-methyl-6-(1-methylethenyl)-2-cyclohexen-1-yl]-5-pentyl-1,3-benzenediol]
CBD MIC with Cefuroxime (Cefuroxime at 4 μg/mL, Escherichia coli ATCC 25922): 1 ng/mL
CBD MIC with Cefuroxime (Cefuroxime at 8 μg/mL, Escherichia coli ATCC 25922): 1 ng/mL
CBD MIC with Colistin (Colistin at 0.06 μg/mL (0.062 in Table 56), Escherichia coli ATCC 25922): 8 µg/mL
CBD MIC with Colistin (Colistin at 0.25 μg/mL, Escherichia coli ATCC 25922): 1 µg/mL
CBD MIC with Colistin (Colistin at 0.5 μg/mL, Escherichia coli ATCC 25922): 0.125 µg/mL
CBD MIC with Colistin (Colistin at […], Escherichia coli ATCC 25922): 2 µg/mL
FICI range (Escherichia coli ATCC 25922, CBD with FADDI-287, MIC table (Table 95), listed as CBD): 0.5-16 and 0.25-8
FICI range (Escherichia coli ATCC 25922, CBD with FADDI-287, Synergy table (Table 97), listed as CBD): 0.5 and 0.25-0.5
FICI range (Escherichia coli ATCC 25922, CBD with MCC_8980, MIC table (Table 99)): 0.03-1.02
FICI range (Escherichia coli ATCC 25922, CBD with MCC_8980, Synergy table (Table 101), listed as CBD): 0.03-0.26 and 0.03-0.25
FICI range (Escherichia coli ATCC 25922, CBD with Spero Potentiator SPR741, MIC table (Table 91), listed as CBD): 0.02-1 and 0.04-1.02 and 0.02-1.01
FICI range (Escherichia coli ATCC 25922, CBD with Spero Potentiator SPR741, Synergy table (Table 93), listed as CBD): 0.02-0.25 and 0.04-0.25
CBD MIC with FADDI-287 (Escherichia coli ATCC 25922, FADDI-287 at […], listed as CBD): 1 µg/mL
CBD MIC with MCC_8980 (Escherichia coli ATCC 25922, MCC_8980 at 4 μg/mL, listed as CBD): 16 µg/mL
CBD MIC with MCC_8980 (Escherichia coli ATCC 25922, MCC_8980 at 16 μg/mL, listed as CBD): 1 µg/mL
CBD MIC with Spero SPR206 (Escherichia coli ATCC 25922, Spero SPR206 at 4 μg/mL, listed as CBD): 1.9 ng/mL
FICI (Escherichia coli ATCC 25922, cannabidiol with FADDI-287 at 0.5 μg/mL): 2
FICI (Escherichia coli ATCC 25922, cannabidiol with FADDI-287 at 1 μg/mL): 4 and 2
FICI (Escherichia coli ATCC 25922, cannabidiol with FADDI-287 at 2 μg/mL): 8 and 4
FICI (Escherichia coli ATCC 25922, cannabidiol with FADDI-287 at 4 μg/mL): 16 and 8
FICI (Escherichia coli ATCC 25922, cannabidiol with FADDI-287 at […]): 0.502
FICI (Escherichia coli ATCC 25922, cannabidiol with MCC_8980 at 0.5 μg/mL): 1.008
FICI (Escherichia coli ATCC 25922, cannabidiol with MCC_8980 at 1 μg/mL): 1.016
FICI (Escherichia coli ATCC 25922, cannabidiol with MCC_8980 at 2 μg/mL): 0.03125
FICI (Escherichia coli ATCC 25922, cannabidiol with MCC_8980 at 4 μg/mL): 0.1875
FICI (Escherichia coli ATCC 25922, cannabidiol with MCC_8980 at 4 μg/mL, listed as cannabidiol): 0.125
FICI (Escherichia coli ATCC 25922, cannabidiol with MCC_8980 at 8 μg/mL): 0.1328
FICI (Escherichia coli ATCC 25922, cannabidiol with SPR741 at 0.5 μg/mL): 1.008 and 1.004
FICI (Escherichia coli ATCC 25922, cannabidiol with SPR741 at 1 μg/mL): 1.016
FICI (Escherichia coli ATCC 25922, cannabidiol with SPR741 at 16 μg/mL): 0.127
MIC (ATCC25922, Escherichia coli ATCC 25922, FADDI-287 at 0.25 μg/mL, read-out: CBD MIC with FADDI-287): 62 ng/mL
MIC (ATCC25922, Escherichia coli ATCC 25922, FADDI-287 at 0.5 μg/mL, read-out: CBD MIC with FADDI-287): 1 ng/mL
MIC (ATCC25922, Escherichia coli ATCC 25922, FADDI-287 at 1 μg/mL, read-out: CBD MIC with FADDI-287): 1 ng/mL
MIC (ATCC25922, Escherichia coli ATCC 25922, FADDI-287 at 2 μg/mL, read-out: CBD MIC with FADDI-287): 1 ng/mL
MIC (ATCC25922, Escherichia coli ATCC 25922, FADDI-287 at 4 μg/mL, read-out: CBD MIC with FADDI-287): 1 ng/mL
MIC (ATCC25922, Escherichia coli ATCC 25922, MCC_8980 at 2 μg/mL, read-out: CBD MIC with MCC_8980): 1 ng/mL
MIC (ATCC25922, Escherichia coli ATCC 25922, MCC_8980 at 4 μg/mL, read-out: CBD MIC with MCC_8980): 32000 ng/mL
MIC (ATCC25922, Escherichia coli ATCC 25922, MCC_8980 at 8 μg/mL, read-out: CBD MIC with MCC_8980): 2000 ng/mL
MIC (ATCC25922, Escherichia coli ATCC 25922, MCC_8980 at 16 μg/mL, read-out: CBD MIC with MCC_8980): 2000 ng/mL
MIC (ATCC25922, Escherichia coli ATCC 25922, Spero SPR206 at 0.007 μg/mL, read-out: CBD MIC with Spero SPR206): ≥ 32000 ng/mL
MIC (ATCC25922, Escherichia coli ATCC 25922, Spero SPR206 at 0.015 μg/mL, read-out: CBD MIC with Spero SPR206): ≥ 32000 ng/mL
MIC (ATCC25922, Escherichia coli ATCC 25922, Spero SPR206 at 0.062 μg/mL, read-out: CBD MIC with Spero SPR206): 1000 ng/mL
MIC (ATCC25922, Escherichia coli ATCC 25922, Spero SPR206 at 4 μg/mL, read-out: CBD MIC with Spero SPR206): 1 ng/mL
MIC (ATCC25922, MCC_6442 at 2 μg/mL, Escherichia coli ATCC 25922, read-out: CBD MIC with MCC_6442): 3.9 ng/mL
MIC (ATCC25922, MCC_6442 at 4 μg/mL, Escherichia coli ATCC 25922, read-out: CBD MIC with MCC_6442): 1 ng/mL
MIC (ATCC25922, Octapeptin C4 at 4 μg/mL, read-out: CBD MIC with Octapeptin C4): 62 ng/mL
MIC (ATCC25922, Spero SPR206 at 0.007 μg/mL, 2nd of 3 experiments, read-out: CBD MIC with Spero SPR206): > 256000 ng/mL
MIC (ATCC25922, Spero SPR206 at 0.015 μg/mL, 2nd of 3 experiments, read-out: CBD MIC with Spero SPR206): > 256000 ng/mL
MIC (ATCC25922, Spero SPR206 at 0.062 μg/mL, 2nd of 3 experiments, read-out: CBD MIC with Spero SPR206): 1000 ng/mL
MIC (ATCC25922, Spero SPR206 at 0.25 μg/mL, 1st of 3 experiments, read-out: CBD MIC with Spero SPR206): 1 ng/mL
MIC (ATCC25922, Spero SPR206 at 0.25 μg/mL, 2nd of 3 experiments, read-out: CBD MIC with Spero SPR206): 1000 ng/mL
MIC (ATCC25922, Spero SPR206 at 0.25 μg/mL, 3rd of 3 experiments, read-out: CBD MIC with Spero SPR206): > 256000 ng/mL
MIC (ATCC25922, Spero SPR206 at 0.5 μg/mL, 1st of 3 experiments, read-out: CBD MIC with Spero SPR206): 1 ng/mL
MIC (ATCC25922, Spero SPR206 at 0.5 μg/mL, 3rd of 3 experiments, read-out: CBD MIC with Spero SPR206): 2000 ng/mL
MIC (ATCC25922, Spero SPR206 at 1 μg/mL, 1st of 3 experiments, read-out: CBD MIC with Spero SPR206): 1 ng/mL
MIC (ATCC25922, Spero SPR206 at 1 μg/mL, 3rd of 3 experiments, read-out: CBD MIC with Spero SPR206): 500 ng/mL
MIC (ATCC25922, Spero SPR206 at 2 μg/mL, 1st of 3 experiments, read-out: CBD MIC with Spero SPR206): 1 ng/mL
MIC (ATCC25922, Spero SPR206 at 2 μg/mL, 3rd of 3 experiments, read-out: CBD MIC with Spero SPR206): 250 ng/mL
MIC (ATCC25922, Spero SPR206 at 4 μg/mL, 1st of 3 experiments, read-out: CBD MIC with Spero SPR206): 1 ng/mL
MIC (ATCC25922, Spero SPR206 at 4 μg/mL, 3rd of 3 experiments, read-out: CBD MIC with Spero SPR206): 1 ng/mL
activity of cannabidiol in combination with Polymyxin B (Example 1): effective
Average FICI score (Example 1, GN_001, cannabidiol + MCC_006636 (Polymyxin B)): 0.15
Synergy (Example 1, GN_001, cannabidiol + MCC_006636 (Polymyxin B), synergy when FICI≤0.5): YES
activity of cannabidiol combined with colistin (Example 3): effective
CBD MIC with Colistin at concentration 0.015625 μg/mL (Example 3, GN_001): >256 µg/mL
CBD MIC with Colistin at concentration 0.03125 μg/mL (Example 3, GN_001): >256 µg/mL
CBD MIC with Colistin at concentration 0.0625 μg/mL (Example 3, GN_001): 8 µg/mL
CBD MIC with Colistin at concentration 0.25 μg/mL (Example 3, GN_001): 1 µg/mL
CBD MIC with Colistin at concentration 0.5 μg/mL (Example 3, GN_001): 0.125 µg/mL
CBD MIC with Colistin at concentration […] (Example 3, GN_001): 2 µg/mL
activity of cannabidiol combined with Polymyxin B (Example 6): effective
CBD MIC with Polymyxin B at concentration 0.015625 μg/mL (Example 6, GN_001): >256 µg/mL
CBD MIC with Polymyxin B at concentration 0.03125 μg/mL (Example 6, GN_001): >256 µg/mL
CBD MIC with Polymyxin B at concentration 0.0625 μg/mL (Example 6, GN_001): >256 µg/mL
CBD MIC with Polymyxin B at concentration 0.5 μg/mL (Example 6, GN_001): 0.9766 ng/mL
CBD MIC with Polymyxin B at concentration […] (Example 6, GN_001): >256 µg/mL
CBD MIC with Polymyxin B at concentration 0.25 μg/mL (Example 6, GN_001, listed as CBD): 2 µg/mL and 4 µg/mL
activity of cannabidiol in combination with octapeptin MCC_006442 (Example 7): slightly effective
activity of cannabidiol combined with ticarcillin (Example 13): effective
activity of cannabidiol combined with colistin (Example 14): effective
activity of cannabidiol combined with octapeptin MCC_006442 (Example 15): effective
activity of cannabidiol combined with cefotetan (Example 17): effective
activity of cannabidiol combined with aztreonam (Example 18): effective
activity of cannabidiol combined with cefepime (Example 19): effective
activity of cannabidiol combined with octapeptin C4 (Example 21): effective
activity of cannabidiol in combination with Spero Potentiator SPR741 (Example 22): effective
activity of cannabidiol in combination with Spero SPR206 (Example 22): effective
activity of cannabidiol in combination with octapeptin FADDI-287 (Example 23): effective
activity of cannabidiol in combination with MCC_8980 (Example 24): effective
CBD MIC with MCC_6442 (MCC_6442 at 2 μg/mL, Escherichia coli ATCC 25922, listed as CBD): 7.8 ng/mL
CBD MIC with Spero SPR206 (Spero SPR206 at 1 μg/mL, 3rd of 3 experiments, listed as CBD): 250 ng/mL
CBD MIC with Spero SPR206 (Spero SPR206 at 4 μg/mL, 3rd of 3 experiments, listed as CBD): 1.9 ng/mL
CBD MIC with Ticarcillin (Ticarcillin at 4 μg/mL, Escherichia coli ATCC 25922): 0.125 µg/mL
CBD MIC with Ticarcillin (Ticarcillin at 8 μg/mL, Escherichia coli ATCC 25922): 0.001 µg/mL
